Data: article PMC7582770, “Synthesis of “All-Cis” Trihydroxypiperidines from a Carbohydrate-Derived Ketone: Hints for the Design of New β-Gal and GCase Inhibitors” (Molecules, 2020)
Substitutions are numbered along the chain they refer to. Read-outs that look alike come from different tables or passages of the source. Marks after values point to notes of the source that are not given here. Each block holds one compound with its values, some of them ahead of it.

Tests used:
[1] = tested on: mutant β-Gal in GM1-gangliosidosis patient fibroblasts; conditions: cited from earlier work
human lysosomal β-Gal = conditions: cited from earlier work
[2] = biological target: T1, human lysosomal β-galactosidase (β-Gal) (Homo sapiens, UniProt P16278); assay: β-Gal inhibition in human leukocyte homogenates; assay type: biochemical; conditions: compounds 1 mM; human leukocytes extracts
T1 construct: in leukocytes isolated from healthy donors (controls); endogenous in cells; host or cells: human leukocytes from healthy donors, disrupted by sonication (crude homogenate)
T1 sequence (P16278 29-677): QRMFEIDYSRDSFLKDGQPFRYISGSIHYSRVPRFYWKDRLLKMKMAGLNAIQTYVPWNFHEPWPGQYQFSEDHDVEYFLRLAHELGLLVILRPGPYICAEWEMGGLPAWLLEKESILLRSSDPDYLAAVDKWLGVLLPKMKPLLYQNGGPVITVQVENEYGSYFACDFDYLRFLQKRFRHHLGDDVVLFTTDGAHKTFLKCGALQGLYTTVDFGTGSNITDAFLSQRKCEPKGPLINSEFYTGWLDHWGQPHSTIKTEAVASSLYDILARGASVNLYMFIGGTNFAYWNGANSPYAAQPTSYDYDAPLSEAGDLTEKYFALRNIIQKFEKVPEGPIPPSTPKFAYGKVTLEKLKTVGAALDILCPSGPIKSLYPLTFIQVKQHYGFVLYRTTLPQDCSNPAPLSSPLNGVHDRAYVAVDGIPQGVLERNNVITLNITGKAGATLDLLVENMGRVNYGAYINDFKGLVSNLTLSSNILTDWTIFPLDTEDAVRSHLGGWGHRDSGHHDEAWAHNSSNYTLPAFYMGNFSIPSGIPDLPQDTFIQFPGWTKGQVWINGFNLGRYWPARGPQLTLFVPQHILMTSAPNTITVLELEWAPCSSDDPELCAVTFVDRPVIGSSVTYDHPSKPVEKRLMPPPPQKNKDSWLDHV
Protocol: (§1) The new compounds were screened at 1 mM concentration towards β-galactosidase (β-Gal) and β-glucosidase (GCase) in leukocytes isolated from healthy donors (controls). Isolated leukocytes were disrupted by sonication, and a Micro BCA Protein Assay Kit (Sigma–Aldrich, St. Louis, MO, USA) was used to determine the total protein amount for the enzymatic assay, according to the manufacturer’s instructions.
β-Gal activity was measured in a flat-bottomed 96-well plate. Azasugar solution (3 μL), 4.29 μg/μL leukocytes homogenate 1:10 (7 μL), and substrate 4-methylumbelliferyl β-D-galactopyranoside (1.47 mM, 20 μL, Sigma–Aldrich) in acetate buffer (0.1 M, pH 4.3) containing NaCl (0.1 M) and sodium azide (0.02%) were incubated at 37 °C for 1 h. The reaction was stopped by addition of sodium carbonate (200 μL; 0.5 M, pH 10.7) containing Triton X-100 (0.0025%), and the fluorescence 4-methylumbelliferone released by β-galactosidase activity was measured in SpectraMax M2 Microplate Reader (λex = 365 nm and λem = 435 nm; Molecular Devices LLC, San Jose, CA, US). Inhibition is given with respect to the control (without azasugar). Data are mean SD (n = 3).

[3] = biological target: T2, human lysosomal β-glucosidase (GCase) (Homo sapiens, UniProt P04062); assay: GCase inhibition in human leukocyte homogenates; assay type: biochemical; conditions: compounds 1 mM; human leukocytes extracts
T2 construct: in leukocytes isolated from healthy donors (controls); endogenous in cells; host or cells: human leukocytes from healthy donors, disrupted by sonication (crude homogenate)
T2 sequence (P04062 40-536): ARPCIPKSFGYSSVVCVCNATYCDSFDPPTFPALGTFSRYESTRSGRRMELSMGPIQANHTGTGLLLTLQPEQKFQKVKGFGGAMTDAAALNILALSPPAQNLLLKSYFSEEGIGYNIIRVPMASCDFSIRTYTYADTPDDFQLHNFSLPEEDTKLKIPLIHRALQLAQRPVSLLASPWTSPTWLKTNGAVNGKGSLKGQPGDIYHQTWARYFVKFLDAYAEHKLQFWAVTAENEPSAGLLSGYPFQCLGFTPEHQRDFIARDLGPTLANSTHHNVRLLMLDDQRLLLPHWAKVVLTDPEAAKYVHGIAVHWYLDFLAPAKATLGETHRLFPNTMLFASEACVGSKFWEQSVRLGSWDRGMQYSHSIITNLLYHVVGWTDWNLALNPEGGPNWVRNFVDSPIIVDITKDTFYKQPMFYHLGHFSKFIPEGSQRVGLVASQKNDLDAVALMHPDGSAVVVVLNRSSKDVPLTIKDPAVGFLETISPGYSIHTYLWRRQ
Protocol: as §1
GCase activity was measured in a flat-bottomed 96-well plate. Compound solution (3 µL), 4.29 µg/µL leukocytes homogenate (7 µL), and substrate 4-methylumbelliferyl-β-D-glucoside (3.33 mM, 20 µL, Sigma–Aldrich Chemie Gmbh, Munich, Germany)) in citrate/phosphate buffer (0.1:0.2, M/M, pH 5.8) containing sodium taurocholate (0.3%) and Triton X-100 (0.15%) at 37 °C were incubated for 1 h. The reaction was stopped by addition of sodium carbonate (200 µL; 0.5 M, pH 10.7) containing Triton X-100 (0.0025%), and the fluorescence of 4-methylumbelliferone released by β-glucosidase activity was measured in SpectraMax M2 Microplate Reader (λex = 365 nm and λem = 435 nm; Molecular Devices LLC, San Jose, CA, US). Percentage GCase inhibition is given with respect to the control (without compound). Data are mean SD (n = 3). For compounds showing GCase inhibitory activity higher than 80% at 1 mM concentration, the IC50 values were determined by measuring the initial hydrolysis rate with 4-methylumbelliferyl-β-D-glucoside (3.33 mM). Data obtained were fitted by using the appropriate equation (for more details, see the Supplementary Materials).
IC50 for compounds 9, 10, 12 and 21 towards human lysosomal β-glucosidase The IC50 values of inhibitors against β-glucosidase were determined by measuring the initial hydrolysis rate with 4-methylumbelliferyl-β-D-glucoside (3.33 mM). Data obtained were fitted to the following equation using the Origin Microcal program. where Vi/Vo, represent the ratio between the activity measured in the presence of the inhibitor (Vi) and the activity of the control without the inhibitor (V0), “x” the inhibitor concentration, Max and Min, the maximal and minimal enzymatic activity observed, respectively.
Figure S48: IC of compound 9 towards GCase
Figure S49: IC50 of compound 10 towards GCase
(also on this page, place not known: Min x MinMax Vo Vi slope + […] […] […] […] […] […]+ −= 1 be tween (V i) (V 0), IC50) […]

[4] = biological target: T2, human lysosomal β-glucosidase (GCase); conditions: human leukocytes extracts, cited from earlier work; for GCase Inhibition (%): compounds 1 mM
[5] = biological target: T3, GCase in fibroblasts with the N370S/RecNcil mutation (Homo sapiens, UniProt P04062, N409S); design: method as in PMID 26376302; conditions: at 100 µM; cited from earlier work
T3 construct: Fibroblasts with the N370S/RecNcil mutation from patients with Gaucher disease; host or cells: human Gaucher patient fibroblasts, N370S/RecNciI
T3 sequence (P04062 40-536 N409S): T2 sequence (P04062 40-536) with N370S

[6] = biological target: T1, human lysosomal β-galactosidase (β-Gal); design: method as in PMID 32200326; conditions: compounds 1 mM; human leukocytes extracts; cited from earlier work

SMILES: CCCCCCCCCN1C[C@H](O)[C@@H](O)[C@@H](O)[C@H]1CO [compound 2, N-nonyl-DGJ]
rescue of intracellular activity of mutant β-Gal in GM1-gangliosidosis patient fibroblasts [1]: able to rescue the intracellular activity of mutant β-Gal

SMILES: OC[C@H]1CNC[C@@H](O)[C@H]1O [compound 3, 4-epi-isofagomine]
IC50 (human lysosomal β-Gal): 1 µM

SMILES: CCCCC[C@H]1NC[C@@H](O)[C@@H](O)[C@H]1CO [compound 4]
IC50 (human lysosomal β-Gal): 0.01 µM
rescue of mutant β-Gal activity in fibroblasts from GM1-gangliosidosis patients [1]: able to rescue mutant β-Gal activity

SMILES: CCCCCCCCC[C@H]1NC[C@@H](O)[C@@H](O)[C@H]1CO [compound 5]
IC50 (human lysosomal β-Gal): 0.0004 µM
rescue of mutant β-Gal activity in fibroblasts from GM1-gangliosidosis patients [1]: able to rescue mutant β-Gal activity

SMILES: O[C@@H]1[C@H](O)[C@H](O)CN[C@H]1C[C@H](O)c1ccccc1 [compound 6]
increase of β-Gal activity in GM1 gangliosidosis patient fibroblasts [1]: 2–6 fold

SMILES: CCCCCCCC[C@@H](O)C[C@@H]1NC[C@@H](O)[C@@H](O)[C@H]1O [compound 7]
increase of β-Gal activity in GM1 gangliosidosis patient fibroblasts [1]: 2–6 fold

inhibition at 1000 µM [2]: 0%
inhibition at 1000 µM [3]: 36%
SMILES: O[C@@H]1CNC[C@@](O)(CCc2ccccc2)[C@@H]1O [compound 11, (3S, 4R, 5R)-3,4,5-Trihydroxy-3-(2-Phenylethyl)-Piperidine]

inhibition at 1000 µM [2]: 3%
inhibition at 1000 µM [3]: 30%
SMILES: CC[C@]1(O)CNC[C@@H](O)[C@H]1O [compound 13, (3S, 4R, 5R)-3-Ethyl-3,4,5-Trihydroxypiperidine]

inhibition at 1000 µM [2]: 16%
inhibition at 1000 µM [3]: 9%
melting point: 73 to 75 °C
SMILES: O[C@@H]1CNC[C@@](O)(CCc2ccsc2)[C@@H]1O [compound 14, (3S, 4R, 5R)-3,4,5-Trihydroxy-3-((2-(3-Thienyl) Ethyl))-Piperidine]

inhibition at 1000 µM [2]: 6%
inhibition at 1000 µM [3]: 6%
SMILES: CN(C)c1ccc(CC[C@]2(O)CNC[C@@H](O)[C@H]2O)cc1 [compound 15]

β-Gal Inhibition (%) [2]: 16%
inhibition at 1000 µM [3]: 25%
SMILES: O[C@@H]1CNC[C@@](O)(C#Cc2ccccc2)[C@@H]1O [compound 32, (3S, 4R, 5R)-3,4,5-Trihydroxy-3-(Phenylethynyl)-Piperidine]

inhibition at 1000 µM [2]: 4%
inhibition at 1000 µM [3]: 65%
SMILES: CCCCCCC#C[C@]1(O)CNC[C@@H](O)[C@H]1O [compound 33, (3S, 4R, 5R)-3,4,5-Trihydroxy-3-(oct-1-yn-1-yl)-Piperidine]

SMILES: CCCCCCCCN[C@H]1CNC[C@@H](O)[C@H]1O [compound 36]
inhibition at 1000 µM [2]: 15%
GCase Inhibition (%) [4]: 93 ^c %
IC50 [4]: 40 ± 3 µM
rescue of GCase activity [5]: 1.5 fold

SMILES: CCCCCCCC[C@H]1NC[C@@H](O)[C@@H](O)[C@@H]1O [compound 37]
β-Gal Inhibition (%) [6]: 14 ^d %
GCase Inhibition (%) [4]: 100 ^d %
IC50 [4]: 29 ± 2 µM

SMILES: CCCCCCCCCCCC[C@H]1NC[C@@H](O)[C@@H](O)[C@@H]1O [compound 38]
β-Gal Inhibition (%) [6]: 5 ^d %
GCase Inhibition (%) [4]: 100 ^d %
IC50 [4]: 1.5 ± 0.1 µM

SMILES: CCCCCCCC[C@@H]1NC[C@@H](O)[C@@H](O)[C@@H]1O [compound 39]
β-Gal Inhibition (%) [6]: 31 ^d %
GCase Inhibition (%) [4]: 80 ^d %
IC50 [4]: 94 ± 5 µM
